{"source": "patent US11021445B2", "about": "“Carboxylic acid derivative as AT2R receptor antagonist” (SHANDONG DANHONG PHARMACEUTICAL CO., LTD., priority 2017, dated 2021)"}
{"biological_target": "T1, hAT2 (Homo sapiens, UniProt P50052)", "T1 construct": "expressed in transfected cells; host or cells: HEK-293", "T1 sequence (P50052 1-363)": "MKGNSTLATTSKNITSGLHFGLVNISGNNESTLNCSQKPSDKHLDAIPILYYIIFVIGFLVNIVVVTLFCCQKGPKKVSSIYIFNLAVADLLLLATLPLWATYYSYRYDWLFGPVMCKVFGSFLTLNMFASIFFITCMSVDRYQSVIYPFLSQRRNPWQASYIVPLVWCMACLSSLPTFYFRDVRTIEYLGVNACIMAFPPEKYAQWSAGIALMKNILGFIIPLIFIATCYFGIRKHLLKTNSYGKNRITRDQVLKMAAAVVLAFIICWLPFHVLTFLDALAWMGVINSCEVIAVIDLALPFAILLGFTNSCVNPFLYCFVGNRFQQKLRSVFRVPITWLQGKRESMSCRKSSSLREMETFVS", "assay": "hAT2 receptor binding assay (SPA, [125I]-Sar1-Ile8-Angiotensin II)", "conditions": "membrane of HEK-293 cells overexpressing hAT2; 0.1 nM 125I ligand", "description": "hAT2 Receptor Binding Assay\nProtease inhibitor mixture, free of ethylenediaminetetraacetic acid-1 tablets (Roche #11873580001) (50 mL plus one piece)\nExperimental Methods and Steps\nThe reference ligand PD123319 and the test compound were prepared into a 750 μM mother liquor by DMSO; each compound was prepared into a solution of 8 concentration gradients (up to a concentration of 750 μM, 3-fold dilution) and 10 μl of the solution was added to a master of a 384-well plate per well.\nThe SPA beads were prepared to a mother liquor of 25 mg/ml by the buffer;\nThe isotope [^125I]-Sar1-Ile8-Angiotensin II was prepared into a mother liquor of 50 μCi/ml by adding pure water.\nThe cell membrane overexpressing hAT2 in HEK-293 cells was prepared to 2.5 mg/ml by the buffer.\n200 nl of compound was aspirated from the mother plate with ECHO to each well of the 384-well test plate. ZPE was added to an equal volume of DMSO. (The concentration of the test compound in the reaction was diluted by 250 times).\nA 50 ml membrane solution containing 10 μg/μl of magnetic beads and 0.05 μg/μl of AT2 was prepared, placed on a shaker and uniformly mixed. (100 rpm, 30 min). The test plate finally contained an hAT2 membrane with 1.25 μg/well and magnetic beads with 250 μg/well.\nA 3.2 ml membrane liquid mixture was added to the compound test plate by using a Multidrop Combi pipette, and 25 μl was added to each well.\nA 0.2 nM solution was prepared with 50 μCi/ml of isotope [^125I]-Sar1-Ile8-Angiotensin II mother liquor by the buffer, and 0.2 nM of ^125I was added to the compound test plate with a Multidrop Combi pipette. A volume of 25 μl was added to each well. The final concentration of ^125I isotope is 0.1 nM.\nThe prepared test plate was placed on a shaker overnight at room temperature at 200 rpm.\nThe test plate was centrifuged with a centrifuge at 1200 rpm for 1 min.\nThe centrifuged test plate was read with Microbeta.", "units": {"IC50": "nM"}}
{"smiles": "COc1ccc2c(c1OCc1ccccc1)C[C@@H](C(=O)O)N(C(=O)[C@@H](Oc1ccccn1)c1ccccc1)C2", "note": "[Compound 21]", "IC50": 195}
{"smiles": "COc1ccc2c(c1OCc1ccccc1)C[C@@](C)(C(=O)O)N(C(=O)[C@@H](OC1CCCC1)c1ccccc1)C2", "note": "[Compound 113]", "IC50": "> 3000"}
{"smiles": "COc1ccc2c(c1OCc1ccccc1)C[C@@H](C(=O)O)N(C(=O)[C@H](Oc1ccccc1)c1ccccc1)C2", "note": "[Compound 20]", "IC50": 176}
{"smiles": "O=C(O)[C@H]1Cc2c(ccc(Cl)c2OCc2ccccc2)CN1C(=O)[C@@H](OC1CCCC1)c1ccccc1", "note": "[Compound 108]", "IC50": 234}
{"smiles": "N#Cc1ccc2c(c1OCc1ccccc1)C[C@@H](C(=O)O)N(C(=O)[C@@H](OC1CCCC1)c1ccccc1)C2", "note": "[Compound 109]", "IC50": 1050}
{"smiles": "COc1ccc2c(c1OCc1ccccc1)C[C@@H](C(=O)O)N(C(=O)[C@@H](O[C@H]1CC[C@H](O)CC1)c1ccccc1)C2", "note": "[Compound 65]", "IC50": 157}
{"smiles": "O=C(O)[C@@H]1Cc2c(ccc(Cl)c2OCc2ccccc2)CN1C(=O)[C@H](O[C@H]1CC[C@@H](O)CC1)c1ccccc1", "note": "[Compound 78]", "IC50": 7.4}
{"smiles": "COc1ccc2c(c1OCc1ccccc1)C[C@@H](C(=O)O)N(C(=O)[C@@H](NC1CCCC1)c1ccccc1)C2", "note": "[Compound 40]", "IC50": 9.1}
{"smiles": "COc1ccc2c(c1OCc1ccccc1)C[C@@H](C(=O)O)N(C(=O)[C@@H](NC(=O)C1CCCC1)c1ccccc1)C2", "note": "[Compound 42]", "IC50": 161}
{"smiles": "COc1ccc2c(c1OCc1ccccc1)C[C@@H](C(=O)O)N(C(=O)[C@H](O[C@H]1CC[C@@H](O)CC1)c1ccccc1)C2", "note": "[Compound 64]", "IC50": 375}
{"smiles": "Cc1ccc2c(c1OCc1ccccc1)C[C@@H](C(=O)O)N(C(=O)[C@H](OC1CC(F)(F)C1)c1ccccc1)C2", "note": "[Compound 68]", "IC50": 67}
{"smiles": "Cc1ccc2c(c1OCc1ccccc1)C[C@@H](C(=O)O)N(C(=O)[C@@H](OC1(C)CCCC1)c1ccccc1)C2", "note": "[Compound 69]", "IC50": 1.7}
{"smiles": "COc1ccc2c(c1OCc1ccccc1)C[C@@H](C(=O)O)N(C(=O)[C@@H](OC1CCC3CC31)c1ccccc1)C2", "note": "(single isomer, unassigned) [Compound 60]", "IC50": 2.5}
{"smiles": "COc1ccc2c(c1OCc1ccccc1)C[C@@H](C(=O)O)N(C(=O)[C@H](OC1(C)CCCC1)c1ccccc1)C2", "note": "[Compound 58]", "IC50": 155}
{"smiles": "COc1ccc2c(c1OCc1ccccc1)C[C@@H](C(=O)O)N(C(=O)[C@H](c1ccccc1)N(C)C1CCCC1)C2", "note": "[Compound 45]", "IC50": 487}
{"smiles": "Cc1ccc2c(c1OCc1ccccc1)C[C@@H](C(=O)O)N(C(=O)[C@@H](O[C@H]1CC[C@@H](O)CC1)c1ccccc1)C2", "note": "[Compound 71]", "IC50": 1090}
{"smiles": "O=C(O)[C@@H]1Cc2c(ccc(Cl)c2OCc2ccccc2)CN1C(=O)[C@@H](OC1CC(F)(F)C1)c1ccccc1", "note": "[Compound 73]", "IC50": 3.7}
{"smiles": "N#Cc1ccc2c(c1OCc1ccccc1)C[C@H](C(=O)O)N(C(=O)[C@@H](OC1CCCC1)c1ccccc1)C2", "note": "[Compound 110]", "IC50": 552}
{"smiles": "COc1ccc2c(c1OCc1ccccc1)C[C@@H](C(=O)O)N(C(=O)C(OC1CCCC1)c1ccccc1)C2", "note": "(stereo partly shown) [Compound 47]", "IC50": 17}
{"smiles": "O=C(O)[C@@H]1Cc2c(cccc2OCc2ccccc2)CN1C(=O)[C@@H](OC1CC(F)(F)C1)c1ccccc1", "note": "[Compound 83]", "IC50": 3.2}
{"smiles": "COc1ccc2c(c1OCc1ccccc1)C[C@@H](C(=O)O)N(C(=O)[C@H](OC1CC(F)(F)C1)c1ccccc1)C2", "note": "[Compound 52]", "IC50": 126}
{"smiles": "COc1ccc2c(c1OCc1ccccc1)C[C@@H](C(=O)O)N(C(=O)[C@@H](Oc1ccc(C#N)cc1)c1ccccc1)C2", "note": "[Compound 29]", "IC50": 231}
{"smiles": "O=C(O)[C@@H]1Cc2c(cccc2OCc2ccccc2)CN1C(=O)[C@H](O[C@H]1CC[C@@H](O)CC1)c1ccccc1", "note": "[Compound 82]", "IC50": 20.8}
{"smiles": "COc1ccc2c(c1OCc1ccccc1)CC(C(=O)O)N(C(=O)C(OC1CCOCC1)c1ccccc1)C2", "note": "(single isomer, unassigned) [Compound 1]", "IC50": 66.4}
{"smiles": "COc1ccc2c(c1OCc1ccccc1)C[C@@H](C(=O)O)N(C(=O)[C@@H](Oc1ccc(Cl)cc1)c1ccccc1)C2", "note": "[Compound 33]", "IC50": 648}
{"smiles": "COc1ccc2c(c1OCc1ccccc1)C[C@@H](C(=O)O)N(C(=O)[C@@H](OC1CC3CC3C1)c1ccccc1)C2", "note": "(stereo partly shown) [Compound 55]", "IC50": 4.4}
{"smiles": "COc1ccc2c(c1OCc1ccccc1)C[C@@H](C(=O)O)N(C(=O)[C@@H](OC1CCCCC1)c1ccccc1)C2", "note": "[Compound 44]", "IC50": 8}
{"smiles": "COc1ccc2c(c1OCc1ccccc1)C[C@@H](C(=O)O)N(C(=O)C(OC1CCC(O)CC1)c1ccccc1)C2", "note": "(stereo partly shown) [Compound 48]", "IC50": 21.4}
{"smiles": "CC1(O[C@@H](C(=O)N2Cc3cccc(OCc4ccccc4)c3C[C@H]2C(=O)O)c2ccccc2)CCCC1", "note": "[Compound 80]", "IC50": 323}
{"smiles": "COc1ccc2c(c1OCc1ccccc1)C[C@@H](C(=O)O)N(C(=O)[C@H](NC1CCCC1)c1ccccc1)C2", "note": "[Compound 41]", "IC50": 216}
{"smiles": "COc1ccc(O[C@H](C(=O)N2Cc3ccc(OC)c(OCc4ccccc4)c3C[C@H]2C(=O)O)c2ccccc2)cc1", "note": "[Compound 23]", "IC50": "> 3000"}
{"smiles": "N#Cc1ccc2c(c1OCc1ccccc1)C[C@H](C(=O)O)N(C(=O)[C@H](OC1CCCC1)c1ccccc1)C2", "note": "[Compound 112]", "IC50": 116}
{"smiles": "COc1ccc2c(c1OCc1ccccc1)C[C@](C)(C(=O)O)N(C(=O)[C@H](OC1CCCC1)c1ccccc1)C2", "note": "[Compound 114]", "IC50": 412}
{"smiles": "COc1ccc2c(c1OCc1ccccc1)C[C@@H](C(=O)O)N(C(=O)[C@@H](Oc1cccs1)c1ccccc1)C2", "note": "[Compound 25]", "IC50": 72.1}
{"smiles": "COCCO[C@H](C(=O)N1Cc2ccc(OC)c(OCc3ccccc3)c2C[C@H]1C(=O)O)c1ccccc1", "note": "[Compound 3]", "IC50": 197}
{"smiles": "Cc1ccc2c(c1OCc1ccccc1)C[C@@H](C(=O)O)N(C(=O)[C@@H](OC1CC(F)(F)C1)c1ccccc1)C2", "note": "[Compound 67]", "IC50": 1.6}
{"smiles": "COc1ccc2c(c1OCc1ccccc1)C[C@@H](C(=O)O)N(C(=O)[C@H](O[C@H]1CC[C@H](O)CC1)c1ccccc1)C2", "note": "[Compound 66]", "IC50": "> 3000"}
